Results taken from patent publication US20240391923A1, “METHIONINE ADENOSYLTRANSFERASE 2A INHIBITOR FOR TREATING MTAP DELETION-TYPE CANCER” (SUZHOU GENHOUSE BIO CO., LTD., priority 2022, published 2024).
pIC50: −log10 of the molar value. Read-outs that look alike come from different tables or passages of the source.

Key:
[1] = Pharmacokinetic test in mice (IV and PO); type: in vivo; conditions: BALB/c mice; for AUC / clearance / bioavailability / half-life / Vd: mouse, plasma; for half-life: read-out: T½ (converted); for Vd: read-out: Vz
CYP2C9 = target: T1, CYP2C9 (Homo sapiens, UniProt P11712); test: Cytochrome oxidase P450 inhibition test, CYP2C9; type: in vitro ADME; conditions: liver microsome incubation
T1 construct: from tissue; host or cells: liver microsome
Method: (§1) 100 mM K-Buffer: 9.5 mL of stock solution A was mixed with 40.5 mL of stock solution B, the total volume was adjusted to […] with ultrapure water, and the buffer was titrated to pH 7.4 with KOH or H3PO4. • Starting material A (1 M potassium dihydrogen phosphate): 136.5 g of potassium dihydrogen phosphate in 1 L of water. • Stock B […] in 1 L of water. The test substance powder was prepared into a stock solution with a certain concentration using DMSO or other organic solvents, which was then further diluted using a proper organic solvent. The extracorporeal incubation system for CYP450 enzyme metabolism phenotype study was biochemical reaction of a prepared liver microsome, a redox coenzyme, and an enzyme-specific selective inhibitor in simulated physiological temperature and environment. The concentration of the parent drug or a metabolite thereof in the incubation solution was determined by LC-MS/MS.

CYP3A4 = target: T2, CYP3A4 (Homo sapiens, UniProt P08684); test: Cytochrome oxidase P450 inhibition test, CYP3A4; type: in vitro ADME; conditions: liver microsome incubation
T2 construct: from tissue; host or cells: liver microsome
Method: as §1

hERG potassium current = target: T3, hERG potassium current (Homo sapiens, UniProt Q12809); test: hERG inhibition test (whole-cell patch clamp, Qpatch); type: cell-based; conditions: initial concentration 30 μM, 6 concentration points
T3 construct: expressed in transfected cells; host or cells: HEK293, cultured under G418 selection
Method: The BEK293 cells were cultured in a DiVEM medium containing […] and 0.8 mg/mL G418 at 37° C. with 5% o CO2. The cells were digested by TrypLE™ Express and centrifuged. The cell density was adjusted to 2×10^6 cells/mL. The cells were gently mixed for 15-20 min using a shaker equilibrated at room temperature, and subjected to patch clamping on a machine. The medium of the prepared cells was replaced with extracellular fluid. The intracellular fluid and the extracellular fluid were taken from the fluid pool, and respectively added to the intracellular fluid pool and the cell and the test substance pool of the QPlate chip. The voltage stimulation of the whole-cell hERG potassium current was recorded by the whole-cell patch clamp, and the test data was collected and stored by Qpatch. The compound was diluted 3-fold at an initial concentration of 30 μM, and 6 concentration points were set, with each drug concentration being set for two administrations over a period of at least 5 min. The current detected in compound-free extracellular fluid for each cell was served as its own control group, and the detection was repeated at least twice independently using two cells per concentration. All electrophysiological experiments were performed at room temperature.
For data analysis, the current acted for each drug concentration and the current of the blank control were standardized
and then the inhibition rate corresponding to each drug concentration was calculated
The mean and standard error were calculated for each concentration, and the half maximal inhibitory concentration of each compound was calculated:
The dose-dependent effect was fitted non-linearly using the above equation, wherein Y represents the inhibition rate, C represents the concentration of the test substance, IC50 is the half maximal inhibitory concentration, and HillSlope represents the Hill coefficient. Curve fitting and calculation of IC50 were performed by Graphpad software.

DOHH-2 cell strain = test: Tumor cell proliferation inhibition assay (CellTiter-Glo), DOHH-2; type: cell-based; conditions: Homo sapiens, 120 h, DOHH-2 cells, 5-day treatment; for IC50: IC50 score, read-out: Tumor cell 5-day relative growth inhibition (DOHH-2) (nM), score; for pIC50: IC50 value, read-out: Tumor cell 5-day relative growth inhibition (DOHH-2)
Outline: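 Growth inhibition read as ATP content (CellTiter-Glo) after 5-day compound exposure at 37 °C, 5% CO2. Dosing began 24 h post-seeding, ten 3-fold dilutions starting at 10 μM, alongside a DMSO-treated group.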

[2] = system: SDMA in HCT116-MTAP-knockout cell line; test: Cell symmetric dimethylarginine (SDMA) test, In-cell Western, HCT116-MTAP-knockout; type: cell-based; conditions: Homo sapiens, 96 h
[3] = Stability test in liver microsomes, rat; type: in vitro ADME, Sprague-Dawley rats; conditions: Sprague-Dawley; rat liver microsomes 0.5 mg/mL, 1.0 μM substrate, up to 60 min; read-out: Metabolic half-life in rat liver microsome (T½, min)
[4] = Pharmacokinetic test in rats (IV and PO); type: in vivo; conditions: rat, plasma, SD rats; for half-life: read-out: T½ (converted)
[5] = target: MAT2A recombinant protein (Homo sapiens, UniProt P31153); test: MAT2A inhibitory activity (malachite green colorimetric enzyme assay); type: biochemical
Outline: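 Compounds tested over 10 points, 3-fold dilutions, top final concentration 1000 nM. Enzyme reaction: MAT2A, L-methionine, ATP, room temperature, 60 min, in HEPES pH 7.5 buffer with KCl, MgCl2 and DTT; inorganic phosphate read colorimetrically (malachite green, A630). Inhibition vs log concentration fitted for IC50.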

[6] = IC50 score class, read-out: Cell 96 h SDMA Inhibition (HCT116-MTAP−/−) (score)
[7] = read-out: Cell 96 h SDMA Inhibition (HCT116-MTAP−/−)
[8] = IC50 score class, read-out: MAT2A Inhibition (score)

Chain of MAT2A recombinant protein (P31153 whole entry): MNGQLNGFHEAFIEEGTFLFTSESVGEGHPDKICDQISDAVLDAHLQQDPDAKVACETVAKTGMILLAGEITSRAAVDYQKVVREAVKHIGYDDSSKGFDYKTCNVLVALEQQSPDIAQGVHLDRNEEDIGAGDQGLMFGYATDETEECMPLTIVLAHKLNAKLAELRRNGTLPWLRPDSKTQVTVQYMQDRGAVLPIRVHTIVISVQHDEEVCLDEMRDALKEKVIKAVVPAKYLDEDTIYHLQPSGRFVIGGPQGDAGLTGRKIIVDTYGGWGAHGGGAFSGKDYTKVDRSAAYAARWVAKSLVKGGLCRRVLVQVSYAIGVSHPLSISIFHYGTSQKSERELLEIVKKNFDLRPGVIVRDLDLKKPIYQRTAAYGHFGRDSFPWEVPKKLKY
T1 sequence (P11712 whole entry): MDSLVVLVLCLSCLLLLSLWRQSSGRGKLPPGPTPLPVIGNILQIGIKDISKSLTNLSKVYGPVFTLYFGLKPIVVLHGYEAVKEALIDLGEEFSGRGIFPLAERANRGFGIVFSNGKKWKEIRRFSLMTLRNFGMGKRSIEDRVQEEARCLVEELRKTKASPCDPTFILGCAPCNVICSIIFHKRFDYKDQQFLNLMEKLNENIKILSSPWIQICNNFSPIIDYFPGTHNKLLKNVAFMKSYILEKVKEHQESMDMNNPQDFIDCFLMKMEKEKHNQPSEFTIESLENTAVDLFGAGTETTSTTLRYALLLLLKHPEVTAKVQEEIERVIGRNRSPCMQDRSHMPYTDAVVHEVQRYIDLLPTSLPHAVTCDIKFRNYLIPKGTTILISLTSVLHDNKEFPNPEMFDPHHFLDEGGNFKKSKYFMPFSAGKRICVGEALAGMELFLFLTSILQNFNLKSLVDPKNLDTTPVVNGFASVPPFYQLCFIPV
T2 sequence (P08684 whole entry): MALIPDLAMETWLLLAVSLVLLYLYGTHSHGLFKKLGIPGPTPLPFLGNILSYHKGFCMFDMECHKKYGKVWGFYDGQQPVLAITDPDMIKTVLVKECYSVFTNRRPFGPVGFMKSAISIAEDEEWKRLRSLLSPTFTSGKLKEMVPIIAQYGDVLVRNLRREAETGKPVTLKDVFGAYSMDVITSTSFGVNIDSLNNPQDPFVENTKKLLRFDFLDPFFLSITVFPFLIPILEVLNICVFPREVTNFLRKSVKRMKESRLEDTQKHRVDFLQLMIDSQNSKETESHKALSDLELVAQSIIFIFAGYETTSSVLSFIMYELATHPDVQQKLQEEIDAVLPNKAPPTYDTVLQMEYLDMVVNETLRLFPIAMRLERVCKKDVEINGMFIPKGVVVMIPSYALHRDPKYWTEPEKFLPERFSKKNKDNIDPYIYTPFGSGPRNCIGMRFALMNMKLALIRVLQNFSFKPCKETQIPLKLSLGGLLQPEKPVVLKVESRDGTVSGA
T3 sequence (Q12809 whole entry): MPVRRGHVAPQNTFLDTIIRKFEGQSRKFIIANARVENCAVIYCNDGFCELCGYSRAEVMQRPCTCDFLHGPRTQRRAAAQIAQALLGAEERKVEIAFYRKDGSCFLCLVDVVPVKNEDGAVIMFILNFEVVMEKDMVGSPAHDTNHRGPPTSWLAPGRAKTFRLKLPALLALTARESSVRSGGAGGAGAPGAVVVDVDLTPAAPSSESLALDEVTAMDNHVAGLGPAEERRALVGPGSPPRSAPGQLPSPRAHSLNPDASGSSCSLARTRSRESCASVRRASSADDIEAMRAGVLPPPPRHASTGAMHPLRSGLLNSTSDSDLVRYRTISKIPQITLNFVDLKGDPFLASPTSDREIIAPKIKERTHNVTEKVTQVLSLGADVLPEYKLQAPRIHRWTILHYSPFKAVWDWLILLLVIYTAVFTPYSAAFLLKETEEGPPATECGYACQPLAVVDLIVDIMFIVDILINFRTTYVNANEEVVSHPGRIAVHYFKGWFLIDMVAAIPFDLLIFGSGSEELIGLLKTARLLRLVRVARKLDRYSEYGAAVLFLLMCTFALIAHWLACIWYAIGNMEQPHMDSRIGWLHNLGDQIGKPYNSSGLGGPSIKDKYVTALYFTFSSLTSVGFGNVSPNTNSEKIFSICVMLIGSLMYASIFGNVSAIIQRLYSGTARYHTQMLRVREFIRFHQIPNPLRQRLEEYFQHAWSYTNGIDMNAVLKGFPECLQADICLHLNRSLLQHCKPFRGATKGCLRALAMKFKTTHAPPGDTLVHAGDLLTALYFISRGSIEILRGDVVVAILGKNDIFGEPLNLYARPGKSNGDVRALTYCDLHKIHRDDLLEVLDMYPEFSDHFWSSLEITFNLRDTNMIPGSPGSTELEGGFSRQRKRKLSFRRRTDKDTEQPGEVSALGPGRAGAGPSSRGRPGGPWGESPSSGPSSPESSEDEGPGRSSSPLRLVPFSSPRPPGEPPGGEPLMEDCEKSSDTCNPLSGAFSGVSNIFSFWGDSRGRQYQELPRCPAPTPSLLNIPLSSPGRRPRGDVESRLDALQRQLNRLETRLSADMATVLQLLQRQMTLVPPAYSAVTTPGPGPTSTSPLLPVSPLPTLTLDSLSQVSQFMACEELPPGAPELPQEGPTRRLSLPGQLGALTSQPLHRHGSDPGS

Row | AUC ([1]; IV 2 mg/kg) | clearance ([1]; IV 2 mg/kg) | bioavailability ([1]; IV 2 mg/kg, PO 10 mg/kg) | half-life ([1]; IV 2 mg/kg) | Vd ([1]; IV 2 mg/kg) | AUC ([1]; PO 10 mg/kg) | half-life ([1]; PO 10 mg/kg) | pIC50 (CYP2C9) | pIC50 (CYP3A4) | IC50 (DOHH-2 cell strain) | pIC50 (DOHH-2 cell strain) | pIC50 [2, 6] | pIC50 [2, 7] | half-life at 1 μM [3] | AUC ([4]; IV 1 mg/kg) | clearance ([4]; IV 1 mg/kg) | half-life ([4]; IV 1 mg/kg) | pIC50 [5, 8] | pIC50 ([5]; read-out: MAT2A Inhibition) | Compound | pIC50 (hERG potassium current) | also measured
1 | 3.37 µM·h | 27.3 mL/min/kg | 274% | 0.16 h | 0.4 L/kg | 46.2 µM·h | 0.51 h | < 5.00 | < 5.00 | < 500 nM | 6.87 | > 6.70 | 7.99 | – | – | – | – | – | – | Cc1ncccc1-n1c(=O)c2nn(C)cc2c2ccc(C(F)(F)F)nc21 (single isomer, unassigned) [Compound B180] | < 4.52 | –
2 | 4.5 µM·h | 22.7 mL/min/kg | – | 0.98 h | 1.9 L/kg | 26.8 µM·h | 0.81 h | < 5.00 | < 5.00 | 500 to 2000 nM | 5.95 | 6.00 to 6.70 | 6.66 | > 145 min | 18.9 µM·h | 2.67 mL/min/kg | 3.4 h | – | – | Cn1cc2c(n1)c(=O)n(-c1cccnc1)c1cc(Cl)ccc21 [Compound B12] | < 4.52 | bioavailability ([4]; IV 1 mg/kg, PO 5 mg/kg): 217%; AUC ([4]; PO 5 mg/kg): 223 µM·h; half-life ([4]; PO 5 mg/kg): 3.7 h
3 | 119 µM·h | 0.667 mL/min/kg | 115% | 10 h | 0.6 L/kg | 683 µM·h | 9 h | < 5.00 | < 5.00 | < 500 nM | 7.41 | > 6.70 | 7.46 | > 145 min | – | – | – | > 7.00 | 7.32 | Cn1cc2c(n1)c(=O)n(-c1cccc3[nH]ncc13)c1cc(Cl)ccc21 [Compound B60] | < 4.40 | AUC (in words) ([1]; summary of Table 7): relatively high; half-life (T½) (in words) ([1]; summary of Table 7): relatively long
4 | – | – | – | – | – | – | – | – | – | < 500 nM | 6.35 | > 6.70 | 7.31 | 142 min | – | – | – | > 7.00 | 7.61 | Cn1cc2c(n1)c(=O)n(-c1cccc(O)c1)c1nc(C(F)(F)F)ccc21 [Compound B148] | < 4.52 | –
5 | – | – | – | – | – | – | – | – | – | – | – | > 6.70 | 7.43 | – | – | – | – | > 7.00 | 7.72 | O=c1c2n[nH]cc2c2ccc(C(F)(F)F)nc2n1-c1cccnc1 [Compound B178] | < 4.52 | –
6 | 34.3 µM·h | 2.33 mL/min/kg | 131% | 7.3 h | 1.4 L/kg | 242 µM·h | 3.45 h | < 4.52 | < 4.52 | 500 to 2000 nM | 5.98 | > 6.70 | 7.54 | > 145 min | 120 µM·h | 0.333 mL/min/kg | 6.7 h | > 7.00 | 7.83 | Cn1cc2c(n1)c(=O)n(-c1cccc3[nH]ncc13)c1nc(C(F)(F)F)ccc21 [Compound B181] | < 4.52 | AUC (in words) ([1]; summary of Table 7): relatively high; half-life (T½) (in words) ([1]; summary of Table 7): relatively long; bioavailability ([4]; IV 1 mg/kg, PO 5 mg/kg): 90%; AUC ([4]; PO 5 mg/kg): 541 µM·h; half-life ([4]; PO 5 mg/kg): 9.5 h
7 | – | – | – | – | – | – | – | – | – | – | – | > 6.70 | 6.75 | 20.4 min | – | – | – | > 7.00 | 7.24 | Cn1cc2c(n1)c(=O)n(-c1ccccc1Cl)c1nc(C(F)(F)F)ccc21 [Compound B182] | – | –
8 | 49.8 µM·h | 0.917 mL/min/kg | 220% | 9.8 h | 0.8 L/kg | 2110 µM·h | 34.2 h | – | – | – | – | > 6.70 | 7.15 | – | 177 µM·h | 0.283 mL/min/kg | 8.8 h | > 7.00 | 7.40 | Cn1cc2c(n1)c(=O)n(-c1cccc3[nH]ncc13)c1cc(Cl)c(F)cc21 [Compound B257] | < 4.52 | AUC (in words) ([1]; summary of Table 7): relatively high; half-life (T½) (in words) ([1]; summary of Table 7): relatively long; bioavailability ([4]; IV 1 mg/kg, PO 10 mg/kg): 243%; half-life ([4]; PO 10 mg/kg): 72.8 h
9 | 21.4 µM·h | 2.08 mL/min/kg | – | 14.2 h | 2.6 L/kg | – | – | – | – | – | – | > 6.70 | 7.17 | – | – | – | – | > 7.00 | 7.55 | Cn1cc2c(n1)c(=O)n(-c1cccc3[nH]ncc13)c1cc(Cl)c(C#N)cc21 [Compound B258] | – | tissue distribution (in words) ([1]; concluded from Vz, Table 7): good; AUC (in words) ([1]; summary of Table 7): relatively high; Vz value (in words) ([1]; summary of Table 7): relatively high; half-life (T½) (in words) ([1]; summary of Table 7): relatively long; bioavailability ([1]; IV 2 mg/kg, PO 5 mg/kg): 93%; AUC ([1]; PO 5 mg/kg): 80.7 µM·h; half-life ([1]; PO 5 mg/kg): 7.7 h
10 | 46 µM·h | 1.83 mL/min/kg | – | 9.3 h | 1.58 L/kg | 219 µM·h | 7.7 h | – | – | – | – | > 6.70 | 7.92 | – | 10.2 µM·h | 4.5 mL/min/kg | 6.7 h | – | – | Cn1cc2c(n1)c(=O)n(-c1cccnc1C1CC1)c1cc(Cl)c(F)cc21 [Compound B340] | – | AUC ([4]; PO 5 mg/kg): 68.9 µM·h; half-life ([4]; PO 5 mg/kg): 14.7 h
